Structures are written as SMILES. Where two headings read alike, the source gives them in different places. Marks after values point to notes of the source that are not given here.

Data set [1] relates to Pyrenophora teres. The experiment in a line: In vivo test on Pyrenophora teres (barley net blotch). Conditions: dose of 500 ppm; barley plants; grading 12 days after contamination. How it is done: In Vivo Test on Pyrenophora teres (Barley Net Blotch)
The active ingredients tested are prepared by homogenization in a mixture of acetone/Tween/DMSO, then diluted with water to obtain the desired active material concentration.
Barley plants (Plaisant variety), sown on a 50/50 peat soil-pozzolana substrate in starter cups and grown at 12° C., are treated at the 1-leaf stage (10 cm tall) by spraying with the active ingredient prepared as described above.
Plants, used as controls, are treated with an aqueous solution not containing the active material.
After 24 hours, the plants are contaminated by spraying them with an aqueous suspension of Pyrenophora teres spores (12,000 spores per ml). The spores are collected from a 12-day-old culture. The contaminated barley plants are incubated for 24 hours at about 20° C. and at 100% relative humidity, and then for 12 days at 80% relative humidity.
Grading is carried out 12 days after the contamination, in comparison with the control plants.

Data set [2] deals with Alternaria solani. Put plainly: Alternaria test (tomato) / protective. The data set is classed as in vivo. Conditions: 500 ppm active compound, protective spray, evaluated 7 days after inoculation. How it is done:
Alternaria Test (Tomato)/Protective
Solvent: 49 parts by weight of N,N-dimethylformamide
Emulsifier: 1 part by weight of alkylaryl polyglycol ether
To produce a suitable preparation of active compound, 1 part by weight of active compound is mixed with the stated amounts of solvent and emulsifier, and the concentrate is diluted with water to the desired concentration.
To test for protective activity, young tomato plants are sprayed with the preparation of active compound at the stated application rate. […] The plants then remain at 96% rel. atmospheric humidity and a temperature of 20° C.
Evaluation is carried out 7 days after the inoculation. 0% means an efficacy which corresponds to that of the control, whereas an efficacy of 100% means that no infection is observed.

Data set [3] deals with Fusarium graminearum. It counts as cell-based. Conditions: 50 μM; for % Inhibition of DON/AcDON at 50 μM: 7 days at 28° C.

`CCC(C)n1cc(-c2ccnc(NC(C)COC)n2)c(-c2ccc(Cl)s2)n1` (stereo not shown) [Example 186] came in with a protection in data set [1] of 70%. Further, the log p (pH 2.3) was 3.21^[a].

Regarding `Clc1ccc(-c2nn(C3CCCCC3)cc2-c2ccncc2)s1` [Example 11], in data set [1], the protection was determined as 89%. Also, under “pH 2.7”, the log p was 2.54^[b].

In data set [1], `CCC(C)n1cc(-c2ccnc(NC(C)=O)n2)c(-c2ccc(Cl)s2)n1` (stereo not shown) [Example 151] registered a protection of 90%. In addition, where the note is “pH 2.3”, the log p is 3^[a].

`CCn1cc(-c2ccncc2)c(-c2ccc(Cl)s2)n1` [Example 57] showed a protection in data set [1] of 95%. Under “minor isomer, main value of the example measured by method [b], pH 2.7”, the “logP value of the minor isomer (in parenthesis in column Isomer ratio [d])” value is given as “(1.42)”. Besides, the log p (pH 2.7) was 1.5^[b].

`CC(C)n1cc(-c2ccnc(NC(=O)Cc3ccccc3)c2)c(-c2ccc(Cl)s2)n1` [Example 245] came in with a protection in data set [1] of 100%. Further, the log p (pH 2.7) is 3.94^[b].

On to `CCC(C)n1cc(-c2ccnc(NC(=O)c3ccsc3)c2)c(-c2ccc(Cl)s2)n1` (stereo not shown) [Example 230], for which the protection in data set [1] is listed as 70%. In addition, the log p (pH 2.7) was 4.21^[b].

In data set [1], `CCC(C)n1cc(-c2ccnc(N(C(C)=O)C(C)=O)n2)c(-c2ccc(Cl)s2)n1` (stereo not shown) [Example 150] had a protection of 95%. Also, the log p (pH 2.3) is 3.72^[a].

With `CCCc1c(-c2ccnc(NC(=O)CC)c2)c(-c2sccc2C)nn1C` [Example 166], the protection in data set [1] is given as 80%. In addition, where the note is “pH 2.7”, the log p was 2.29^[b] and the “logP value of the minor isomer” value is 2.39^[b]). For the same molecule, for the setting “pH 7.8”, the log p is 2.71^[c]; and the “logP value of the minor isomer” value is “(2.84^[c];”.

Molecule `CCC(C)n1cc(-c2ccnc(N)n2)c(-c2ccc(Cl)s2)n1` (stereo not shown) [Example 193] yielded a protection in data set [1] of 95%. In addition, the log p (pH 2.3) was 2.3^[a].

As for `CC(=O)Nc1nccc(-c2cn(C(C)C)nc2-c2ccc(Cl)s2)n1` [Example 176], the protection in data set [1] worked out at 90%. Under “pH 2.3”, the log p is 2.59^[a].

In data set [1], `CCC(C)n1cc(-c2ccnc(NCC3CC3)n2)c(-c2ccc(Cl)s2)n1` (stereo not shown) [Example 187] yielded a protection of 70%. For the same molecule, the log p (pH 2.3) is 3.41^[a].

Regarding `Cn1cc(-c2ccnc(NC(=O)c3ccccc3)c2)c(-c2ccc(Cl)s2)n1` [Example 272], in data set [1], the protection is 70%. Also, the log p (pH 2.7) is 3.09^[b].

Molecule `CC(C)n1cc(-c2ccnc(NCC3CC3)n2)c(-c2ccc(Cl)s2)n1` [Example 183] registered a protection in data set [1] of 70%. Besides, the log p (pH 2.3) is 3.02^[a].

In data set [1], `C#CCNc1nccc(-c2cn(C(C)CC)nc2-c2ccc(Cl)s2)n1` (stereo not shown) [Example 188] had a protection of 78%. For the same molecule, the log p (pH 2.3) was 3.68^[a].

In the case of `CCC(C)n1nc(-c2ccc(Cl)s2)c(-c2ccncc2)c1Br` (stereo not shown) [Example 394], in data set [2], the efficacy was found to be 94%. Further, in data set [3], the “% Inhibition of fungal growth at 50 μM” value was found to be 92% and the “% Inhibition of DON/AcDON at 50 μM” value came to 100%. For the same molecule, where the note is “pH 2.7”, the log p is 3.69^[b].

Turning to `CCn1cc(-c2ccncc2)c(-c2ccc(Br)s2)n1` [Example 390], the efficacy in data set [2] came out at 100%. In addition, in data set [3], the “% Inhibition of fungal growth at 50 μM” value is reported as 100% and the “% Inhibition of DON/AcDON at 50 μM” value was 99%. Besides, for the setting “pH 2.7”, the log p is 1.6^[b] and the “logP value of the minor isomer” value is “(1.49)”.

In turn, `C=CC(C)n1cc(-c2ccncc2)c(-c2ccc(F)s2)n1` (stereo not shown) [Example 376] registered an efficacy in data set [2] of 100%. Further, in data set [3], the “% Inhibition of fungal growth at 50 μM” value is recorded as 84% and the “% Inhibition of DON/AcDON at 50 μM” value is on record as 99%. In addition, where the note is “pH 2.7”, the log p is 1.73^[b].

In data set [1], `CC(C)CC(C)n1cc(-c2ccncc2)c(-c2ccc(Cl)s2)n1` (stereo not shown) [Example 13] displayed a protection of 94%. Also, where the note is “pH 2.7”, the log p was 2.7^[b].

The molecule `FC(F)Cn1cc(-c2ccncc2)c(-c2cc3ccsc3s2)n1` [Example 371] registered an efficacy in data set [2] of 78%. Moreover, in data set [3], the “% Inhibition of fungal growth at 50 μM” value came out at 82% and the “% Inhibition of DON/AcDON at 50 μM” value was determined as 99%. The log p (pH 2.7) is 1.63^[b].

For the molecule `CC(C)Cn1cc(-c2ccncn2)c(-c2ccc(Cl)s2)n1` [Example 26], the protection in data set [1] is on record as 70%. The log p (pH 2.7) is 3.31^[b].

Molecule `CCC(C)n1cc(-c2ccncc2)c(-c2cc3ccsc3s2)n1` (stereo not shown) [Example 328] came in with an efficacy in data set [2] of 94%. Besides, in data set [3], the “% Inhibition of fungal growth at 50 μM” value was 100% and the “% Inhibition of DON/AcDON at 50 μM” value was 98%. Moreover, under “pH 2.7”, the log p is 2.07^[b].

Consider `CC(C)n1cc(-c2ccncc2)c(-c2cc3ccsc3s2)n1` [Example 366], for which, in data set [2], the efficacy is listed as 78%. Also, in data set [3], the “% Inhibition of fungal growth at 50 μM” value turned out to be 93% and the “% Inhibition of DON/AcDON at 50 μM” value is reported as 98%. In addition, for the setting “pH 2.7”, the log p is 1.79^[b].

In data set [2], `Clc1ccc(Cn2cc(-c3ccncc3)c(-c3ccc(Cl)s3)n2)s1` [Example 323] showed an efficacy of 78%. For the same molecule, in data set [3], the “% Inhibition of fungal growth at 50 μM” value came out at 6% and the “% Inhibition of DON/AcDON at 50 μM” value is 94%. Further, the log p (pH 2.7) is 2.64^[b].

For `Fc1ccc(-c2nn(CC(F)(F)F)cc2-c2ccncc2)s1` [Example 378], the efficacy in data set [2] worked out at 100%. Further, in data set [3], the “% Inhibition of fungal growth at 50 μM” value came to 54% and the “% Inhibition of DON/AcDON at 50 μM” value is given as 99%. Further, under “pH 2.7”, the log p was 1.64^[b] and the “logP value of the minor isomer” value was “(1.46)”.

`CCC(CC)n1cc(-c2ccncc2)c(-c2cc3ccsc3s2)n1` [Example 333]: the efficacy in data set [2] is 94%. Also, in data set [3], the “% Inhibition of fungal growth at 50 μM” value came out at 86% and the “% Inhibition of DON/AcDON at 50 μM” value is on record as 98%. Also, the log p (pH 2.7) is 2.3^[b].

`CC(C)Cn1cc(-c2ccncc2)c(-c2cc3ccsc3s2)n1` [Example 369] came in with an efficacy in data set [2] of 94%. Moreover, in data set [3], the “% Inhibition of fungal growth at 50 μM” value was 100% and the “% Inhibition of DON/AcDON at 50 μM” value worked out at 99%. Further, the log p (pH 2.7) is 2.04^[b].

In turn, `CC(C)(C)Cn1cc(-c2ccncc2)c(-c2ccc(Cl)s2)n1` [Example 24] had a protection in data set [1] of 90%. Besides, where the note is “pH 2.7”, the log p is 2.39^[b].

Regarding `Fc1ccc(-c2nn(CC(F)F)cc2-c2ccncc2)s1` [Example 373], in data set [2], the efficacy came out at 100%. In data set [3], the “% Inhibition of fungal growth at 50 μM” value came to 97% and the “% Inhibition of DON/AcDON at 50 μM” value is listed as 99%. Besides, the log p (pH 2.7) was 1.34^[b].

In turn, `CC(C)C(=O)Nc1nccc(-c2cn(C(C)C)nc2-c2ccc(Cl)s2)n1` [Example 174] came in with a protection in data set [1] of 90%. Further, the log p (pH 2.3) was 3.29^[a].

On to `CC(C)Cn1nc(-c2ccc(Cl)s2)c(-c2ccncc2)c1Br` [Example 395], for which the efficacy in data set [2] was 78%. Also, in data set [3], the “% Inhibition of fungal growth at 50 μM” value is recorded as 0% and the “% Inhibition of DON/AcDON at 50 μM” value turned out to be 99%. Also, for the setting “pH 2.7”, the log p is 3.58^[b].

In turn, `CCOCCn1cc(-c2ccncc2)c(-c2cc3ccsc3s2)n1` [Example 337] gave an efficacy in data set [2] of 94%. Moreover, in data set [3], the “% Inhibition of fungal growth at 50 μM” value is listed as 100% and the “% Inhibition of DON/AcDON at 50 μM” value stood at 99%. In addition, under “pH 2.7”, the log p was 1.7^[b].

The molecule `C=CC(C)n1cc(-c2ccncc2)c(-c2cc3ccsc3s2)n1` (stereo not shown) [Example 368] came in with an efficacy in data set [2] of 78%. Also, in data set [3], the “% Inhibition of fungal growth at 50 μM” value is on record as 100% and the “% Inhibition of DON/AcDON at 50 μM” value was found to be 99%. Further, the log p (pH 2.7) was 1.94^[b].

`Cn1cc(-c2ccnc(NC(=O)C(C)(C)O)c2)c(-c2ccc(Cl)s2)n1` [Example 208] had a protection in data set [1] of 80%. Also, for the setting “pH 2.7”, the log p is 2.26^[b].

Consider `Fc1ccc(-c2nn(CCCl)cc2-c2ccncc2)s1` [Example 381], for which the efficacy in data set [2] came to 94%. Further, in data set [3], the “% Inhibition of fungal growth at 50 μM” value turned out to be 91% and the “% Inhibition of DON/AcDON at 50 μM” value came to 99%. Where the note is “pH 2.7”, the log p is 1.45^[b] and the “logP value of the minor isomer” value is recorded as “(1.34)”.

Consider `CC(C)(C)Cn1cc(-c2ccncc2)c(-c2ccc(Br)s2)n1` [Example 347], for which the efficacy in data set [2] was 70%. For the same molecule, in data set [3], the “% Inhibition of fungal growth at 50 μM” value was found to be 79% and the “% Inhibition of DON/AcDON at 50 μM” value was 99%. For the setting “pH 2.7”, the log p was 2.46^[b].

In turn, `C[C@H](O)C(=O)Nc1cc(-c2cn(C)nc2-c2ccc(Cl)s2)ccn1` [Example 207] yielded a protection in data set [1] of 70%. The log p (pH 2.7) was 2.11^[b].

For `CCC(CC)n1cc(-c2ccncc2)c(-c2ccc(F)s2)n1` [Example 380], in data set [2], the efficacy is reported as 89%. In addition, in data set [3], the “% Inhibition of fungal growth at 50 μM” value is 82% and the “% Inhibition of DON/AcDON at 50 μM” value is reported as 99%. Further, for the setting “pH 2.7”, the log p was 2.04^[b] and the “logP value of the minor isomer” value is listed as “(1.95)”.

`C=CC(C)n1cc(-c2ccncc2)c(-c2ccc(Br)s2)n1` (stereo not shown) [Example 389]: the efficacy in data set [2] is reported as 94%. In data set [3], the “% Inhibition of fungal growth at 50 μM” value was 96% and the “% Inhibition of DON/AcDON at 50 μM” value is reported as 99%. Besides, where the note is “pH 2.7”, the log p was 2.03^[b] and the “logP value of the minor isomer” value is “(1.88)”.

Values taken from patent US8685974B2 (Bayer CropScience AG, priority 2009, dated 2014).
